From publication PMC7775894 (Bioorganic chemistry, 2020)
In brackets after ≈: the same amount, converted by molar mass. Several values for one entry are separate records, joined by “and”; a condition that tells them apart may be missing. Identical values can stand only once. Like-named read-outs stand apart in the source and are kept apart here.

How the values were obtained:
Vero cells = assay: Cytotoxicity on Vero cells; type: cell-based; details: SI = IC50(Vero)/MIC(H37Rv)
[1] = tested on: Mycobacterium avium (M. avium); assay: MABA MIC against M. avium; type: cell-based; details: for MIC: Mycobacterium avium, read-out: M. avium MIC
[2] = tested on: Mycobacterium abscessus (M. abs); assay: MABA MIC against M. abs; type: cell-based; details: for MIC: Mycobacteroides abscessus, read-out: M. abs MIC
M. tb V4207/DS = assay: microbe, parasite or virus in culture; type: cell-based; details: Mycobacterium tuberculosis, read-out: M. tb MIC V4207/DS
M. tb H37Rv strain [3] = assay: Microplate alamarBlue assay; type: cell-based, Mycobacterium tuberculosis
XDR M. tb strains = assay: microbe, parasite or virus in culture; type: cell-based; details: Mycobacterium tuberculosis, read-out: MIC against XDR M. tb strains
physchem = details: water, kinetic from dmso stock
DS- and DR-TB [4] = assay: MIC against both DS- and DR-TB as stated in text; details: Mycobacterium tuberculosis, read-out: MIC against both DS- and DR-TB
M. tb H37Rv strain [5] = details: cited from earlier work
[6] = cited from earlier work
[7] = cited from earlier work; remark: listed apart in the source
DS- and DR-TB [8] = details: cited from earlier work
[9] = Mycobacterium tuberculosis, H37RV
[10] = M. tb H37Rv, MABA, at least 90% growth inhibition, average of three measurements

Row | SMILES | Selectivity index (SI) (Vero cells) | MIC [1] | MIC [2] | MIC (M. tb V4207/DS) | MIC (M. tb H37Rv strain [3]; [9]) | also measured
1 | O=C(NC12CC3CC(CC(C3)C1)C2)c1cc2c(F)cc(F)cc2[nH]1 [8k, N-(1-Adamantyl)-4,6-difluoro-1H-indole-2-carboxamide] | ≥8205 | > 194 µM | > 194 µM | 0.024 µM (≈ 0.00793 µg/mL) | 0.024 µM (≈ 0.00793 µg/mL) | MIC (XDR M. tb strains): 0.012 µM (≈ 0.00396 µg/mL); solubility kinetic (physchem): 7 µg/mL (≈ 21.2 µM); MIC (DS- and DR-TB [4]): 0.012 to 0.024 µM (≈ 0.00396 to 0.00793 µg/mL)
2 | O=C(Nc1ccc(F)c(F)c1F)NC1C2CC3CC(C2)CC1C3 (centres unmarked) [compound 4] |  |  |  |  |  | MIC (M. tb H37Rv strain [5]; ref 26, 43): 0.03–0.3 [26, 43] μM
3 | O=C(NC12CC3CC(CC(C3)C1)C2)c1cc2c(Cl)cc(Cl)cc2[nH]1 [compound 2, N-(1-adamantyl)-4,6-dichloroindole-2-carboxamide] |  |  |  |  |  | MIC (M. tb H37Rv strain [5]; ref 45): 0.011 μM and 0.011 [45] μM; in vivo activity ([6]; due to poor bioavailability): inactive in vivo; in vivo activity ([6]; likely due to poor bioavailability): inactive in vivo
4 | O=C(NC12CC3CC(CC(O)(C3)C1)C2)c1cc2ccc(Br)cc2[nH]1 [8i, 6-bromo-N-(3-hydroxyadamantan-1-yl)-1H-indole-2-carboxamide] | 32 | > 164 µM | > 164 µM | 5.14 µM (≈ 2 µg/mL) | 1.32 to 2.89 µM (≈ 0.514 to 1.13 µg/mL) | 
5 | COc1nc2ccc(Br)cc2cc1[C@@H](c1ccccc1)[C@@](O)(CCN(C)C)c1cccc2ccccc12 [bedaquiline] |  |  |  |  |  | logP [7]: > 7; MIC against both DS- and DR-TB (DS- and DR-TB [8]): 0.11 µM (≈ 0.0611 µg/mL)
6 | O=C(NC12CC3CC(CC(O)(C3)C1)C2)c1cc2c(Cl)cc(Cl)cc2[nH]1 [8j, 4,6-dichloro-N-(3-hydroxyadamantan-1-yl)-1H-indole-2-carboxamide] | ≥128 | > 169 µM | > 169 µM | 1.32 µM (≈ 0.501 µg/mL) |  | MIC (M. tb H37Rv strain [3]; [10]): 1.32 µM (≈ 0.501 µg/mL); MIC (XDR M. tb strains): 0.66 µM (≈ 0.25 µg/mL)
7 | O=C(Nc1cc(Cl)cc(Cl)c1)NC12CC3CC(CC(C3)C1)C2 [10a, 1-(1-Adamantyl)-3-(3,5-dichlorophenyl)urea] | 4.0 | 47.2 µM (≈ 16 µg/mL) | > 189 µM | 1.47 µM (≈ 0.499 µg/mL) |  | M. abs MIC ([2]; MABA): >189 µM
8 | O=C(Nc1nc2ccccc2[nH]1)NC12CC3CC(CC(C3)C1)C2 [compound 12, 1-(1-adamantyl)-3-(1H-benzo[d]imidazol-2-yl)urea] |  |  |  |  | 25.8 µM (≈ 8.01 µg/mL) | 
9 | COc1ccc2[nH]c(C(=O)NC34CC5CC(CC(C5)C3)C4)cc2c1 [8d, N-(1-Adamantyl)-5-methoxy-1H-indole-2-carboxamide] | ≥256 | > 197 µM | > 197 µM | 0.39 to 0.77 µM (≈ 0.127 to 0.25 µg/mL) | 0.77 µM (≈ 0.25 µg/mL) | 
10 | O=C(CC12CC3CC(CC(C3)C1)C2)Nc1nc2ccccc2[nH]1 [13b, 2-(1-Adamantyl)-N-(1H-benzo[d]imidazol-2-yl)acetamide] |  |  |  |  | > 103 µM | MIC (M. tb H37Rv strain [3]; [10]): >103 µM
11 | CC1(C)CCC(NC(=O)c2cc3c(Cl)cc(Cl)cc3[nH]2)CC1 [compound 1] |  |  |  |  |  | MIC (M. tb H37Rv strain [5]; ref 23): 0.015 [23] μM
12 | Cc1ccc2[nH]c(C(=O)NC34CC5CC(CC(O)(C5)C3)C4)cc2c1 [8g, N-(3-hydroxyadamantan-1-yl)-5-methyl-1H-indole-2-carboxamide] |  |  |  |  | 24.7 µM (≈ 8.01 µg/mL) | 
13 | O=C(NC12CC3CC(CC(O)(C3)C1)C2)c1cc2ccccc2[nH]1 [8a, N-(3-hydroxyadamantan-1-yl)-1H-indole-2-carboxamide] |  |  |  |  | 51.5 µM (≈ 16 µg/mL) | 
14 | COc1cccc2[nH]c(C(=O)NC34CC5CC(CC(C5)C3)C4)cc12 [8b, N-(1-Adamantyl)-4-methoxy-1H-indole-2-carboxamide] | ≥2048 | > 197 µM | 12.3 µM (≈ 3.99 µg/mL) | 0.096 µM (≈ 0.0311 µg/mL) | 0.096 µM (≈ 0.0311 µg/mL) | M. avium MIC ([1]; MABA): >197 µM; solubility kinetic (physchem): 5 µg/mL (≈ 15.4 µM)
15 | O=C(Nc1cc(Cl)cc(Cl)c1)NC12CC3CC(CC(O)(C3)C1)C2 [10b, 1-(3,5-dichlorophenyl)-3-(3-hydroxyadamantan-1-yl)urea] |  |  |  |  | > 90 µM | 
16 | COc1ccc2[nH]c(C(=O)NC34CC5CC(CC(O)(C5)C3)C4)cc2c1 [8e, N-(3-hydroxyadamantan-1-yl)-5-methoxy-1H-indole-2-carboxamide] |  |  |  |  | 47 µM (≈ 16 µg/mL) | 
17 | O=C(Nc1nc2ccccc2[nH]1)C12CC3CC(CC(C3)C1)C2 [13a, N-(1H-benzo[d]imidazol-2-yl)adamantane-1-carboxamide] |  |  |  |  | 13.5 µM (≈ 3.99 µg/mL) | 
18 | O=C(NC12CC3CC(CC(O)(C3)C1)C2)c1cc2cc(Cl)ccc2[nH]1 [8h, 5-chloro-N-(3-hydroxyadamantan-1-yl)-1H-indole-2-carboxamide] |  |  |  |  | > 93 µM | MIC (M. tb H37Rv strain [3]; [10]): >93 µM
19 | Cc1ccc2[nH]c(C(=O)NC34CC5CC(CC(C5)C3)C4)cc2c1 [8f, N-(1-Adamantyl)-5-methyl-1H-indole-2-carboxamide] | ≥1024 | > 207 µM | > 207 µM | 0.2 µM (≈ 0.0617 µg/mL) | 0.2 µM (≈ 0.0617 µg/mL) | 
20 | COc1cccc2[nH]c(C(=O)NC34CC5CC(CC(O)(C5)C3)C4)cc12 [8c, N-(3-hydroxyadamantan-1-yl)-4-methoxy-1H-indole-2-carboxamide] |  |  |  |  | 11.7 µM (≈ 3.98 µg/mL) | solubility kinetic (physchem): 30 µg/mL (≈ 88.1 µM)
21 | O=C(NC12CC3CC(CC(O)(C3)C1)C2)c1cc2c(F)cc(F)cc2[nH]1 [8l, 4,6-difluoro-N-(3-hydroxyadamantan-1-yl)-1H-indole-2-carboxamide] | 32 | > 185 µM | > 185 µM | 2.89 µM (≈ 1 µg/mL) |  | solubility kinetic (physchem): 19 µg/mL (≈ 54.9 µM)
